# “And” between values parts separate entries of the source, which are not always exact repeats. Identical values can stand only once.
# Key:
# [1] = tested on: Hyaluronic Acid (HA); assay: Hyaluronic acid secretion in coculture of human aged fibroblasts and mature adipocytes (ELISA); format: cell-based; settings: for secretion of HA, normalized by fibroblasts number, in percentage of the coculture control condition, Values (%): individual replicates
# From the text: In order to evaluate its effect on fibroblast matrix and its anti-inflammatory properties, the effect of compound 6 has been tested on an adipocytes-aged fibroblasts coculture model, mimicking the interactions between dermis and hypodermis in the skin and allowed to explore in parallel the biological effects of the products on two cellular targets.
# • Experimental model: co-culture of human mature adipocytes cultured in 3D and human dermal fibroblasts cultured in 2D (AM3D-FB2D co-culture). This experimental model of AM3D-FB2D co-culture mimicked the interactions between dermis and hypodermis in the skin and allowed to explore in parallel the biological effects of the products on two cellular targets. • Donor characteristics: This study was performed on mature adipocytes and fibroblasts from two different donors (one donor for mature adipocytes and another donor for dermal fibroblasts). • Fibroblasts donor=person, BMI=28 kg/m^2 • Adipocytes donor=person, BMI=21.4 kg/m^2 • Treatment procedure: compound 6 was added to the co-culture medium daily for up to 6 days
# Dermal fibroblasts were seeded in DMEM 10% FBS at 10000 cells/well. The day after, the adipocytes capsules of 50 μl were added in suspension above the fibroblasts and the medium was changed and replaced by a specific culture medium for the co-culture AM3D-FB2D. The formation of adipocytes capsules followed an internal standardized protocol. Briefly, the fully mature adipocytes were isolated from the hypodermis after digestion by collagenase. The isolated adipocytes were then washed with a wash buffer and encapsulated in a peptidic hydrogel to form 3D adipocytes capsules of 50 μl in size. Cells were incubated at 37° C. and 5% CO2 overnight for stabilization. Treatments were initiated at DO with a medium change at DO, D2, D3 and D5. The entire culture media of 24 h incubation was collected at D3 and D6, before being centrifugated and stored at −80° C. Each culture condition was done in triplicate.
# The biochemical analyses on culture media were performed via ELISA using specific kits according to the manufacturer's recommendations: IL-6 (Duoset DY206, R&D Systems), and Hyaluronic Acid (HA) (Duoset, DY3614-05, R&D Systems and Procollagen I (Duoset, DY6220-05, R&D Systems) The results of HA and Procollagen I were normalized by fibroblasts cell number regarding the fact that these molecules were secreted mainly by fibroblasts. All the biochemical results were represented in percentage of the control condition.
# To evaluate the effect of the compound 6 on fibroblast's matrix, the extracellular concentrations of Hyaluronic Acid (HA), that is secreted only by the fibroblasts, were measured at D3 and D6.
# [2] = tested on: human preadipocytes; assay: Proliferation of preadipocytes in classical differentiation conditions (DAPI nuclei staining); format: cell-based; settings: 2 mg/ml; for Cells number at the end of the culture, DAPI staining, Mean: differentiated control 10 118 AU
# Description: (§1) Preadipocytes have been isolated from human female hypodermis (body mass index <30 kg/m2 and <45 years old). Preadipocytes have been cultured for 24 h in 100 μl of DMEM-10% Fetal Bovine Serum (FBS) in 96-well plates. Then cells were treated to induce their differentiation in a classical or an inflammatory environment for 13 days.
# (§2) To induce the preadipocytes differentiation cells were incubated in a proadipogenic cocktail (PAC) including insulin, glucocorticoid, 3-isobutyl-1-methylxanthine (IBMX), and thiazolinedione in DMEM.
# (§3) To induce a fibro-inflammatory environment, cells were treated with an activated human macrophage-conditioned medium (AcMC) prepared in RPMI medium. A treatment with Dexamethasone (DXM) at 100 nM was used as anti-inflammatory response control. At D0: preadipocytes have been treated in the following conditions: • “Undifferentiation”: DMEM+¼ RPMI medium • “Differentiation”: PAC+¼ RPMI medium • “AcMC” i.e. inflammatory condition: PAC+¼ AcMC • “AcMC+DXM”: PAC+[…] AcMC+anti-inflammatory DXM at 100 nM • “AcMc+compounds”: PAC+14 AcMC+compounds to be tested
# (§4) All conditions have been performed in triplicate. The medium has been changed every 2 days for 13 days.
# (§5) The number of cells was determined for each condition by DAPI nuclei staining (nuclei) and expressed in arbitrary unit.
# [3] = tested on: MCP1; assay: Extracellular secretion of MCP1 by preadipocytes in inflammatory condition (ELISA); format: cell-based, human; settings: for MCP1 secretion, Mean (%) / MCP1 secretion, Values (%): inflammatory condition, normalized by cells number (Dapi); for MCP1 secretion, Values (%): individual values; for MCP1 secretion compared to the AcMC control condition fixed at 100%: differentiated preadipocytes
# Description: as §1, §2, §3, §4
# (§6) At D14: during the last 24 h of culture, the medium has been replaced by DMEM/F12 medium in all conditions, to collect cells' secretions.
# After 13 days, the 24 h culture media of the different conditions have been collected at the end of the treatment period. The concentrations of IL-6, procollagen I and MCP1 have been evaluated by ELISA assays using specific kits (for IL-6: DY206, DuoSet ELISA, R&D Systems; for Procollagen I: DY6220-05, DuoSet ELISA, R&D Systems; for MCP1: DY279-05 DuoSet ELISA, R&D Systems) according to the manufacture's recommendations. Values have been normalized to the cell number determined by DAPI staining.
# Quantity of MCP1 secreted in medium was measured and was normalized by cell number in each culture condition. Data are represented in percentage of proinflammatory control condition (AcMC condition).
# [4] = tested on: human preadipocytes; assay: Proliferation of preadipocytes in inflammatory condition (DAPI nuclei staining); format: cell-based; settings: for Cells number at the end of the culture (DAPI staining), Values: individual values; for Cell number (DAPI staining): preadipocytes, inflammatory conditions (AcMC), AcMC control 12 819 AU
# Description: as §1, §2, §3, §4, §5
# [5] = tested on: human preadipocytes; assay: Cytotoxicity (LDH release) on preadipocytes in inflammatory condition (AcMC); format: cell-based; settings: for Cytotoxicity at the end of the culture, normalized by cell number, Values: single replicates
# Description: as §1, §2, §3, §4, §6
# Cytotoxicity was assessed by the measurement of the lactate dehydrogenase (LDH) released by damaged cells in the culture medium (using the kit CytoTox-One Non-Radioactive Cytotoxicity Assay, G1780, Promega). Cells were treated with 0.2% of triton at the end of the culture to determine the maximal toxicity response. The LDH measurement was realized on 24 h medium secretions after 13 days of culture.
# The results were normalized by cell number, determined by nuclei staining (with DAPI: 4′,6-Diamidino-2-Phenylindole, Dihydrochloride), and were represented in percentage of the lysis positive control. Compounds presenting a level of cytotoxicity below 20% compared to control were considered as non-toxic.
# Quantity of LDH measured in medium was normalized by cell number in each culture condition. Data are represented in percentage of proinflammatory control conditions (AcMC condition).
compound,measurement,setting,value
N[C@H]1CCCN(CC(F)(F)[C@]2(O)O[C@H](CO)[C@H](O)[C@H](O)[C@H]2O)C1=O [Compound 6],"HA secretion, normalized by fibroblasts number, % of the control","[1]; 1 mg/ml, 3 days of treatment",140%
same,"HA secretion, normalized by fibroblasts number, % of the control","[1]; 1 mg/ml, 6 days of treatment",189%
same,"HA secretion, normalized by fibroblasts number, % of the control","[1]; 2 mg/ml, 6 days of treatment",225%
same,"HA secretion, normalized by fibroblasts number, % of the control","[1]; 3 mg/ml, 6 days of treatment",164%
same,"secretion of HA, normalized by fibroblasts number, in percentage of the coculture control condition, Mean (%)","[1]; D3, 1 mg/ml",140%
same,"secretion of HA, normalized by fibroblasts number, in percentage of the coculture control condition, Values (%)","[1]; D3, 1 mg/ml",127% and 123% and 169%
same,"secretion of HA, normalized by fibroblasts number, in percentage of the coculture control condition, Mean (%)","[1]; D3, 2 mg/ml",90%
same,"secretion of HA, normalized by fibroblasts number, in percentage of the coculture control condition, Values (%)","[1]; D3, 2 mg/ml",96% and 93% and 80%
same,"secretion of HA, normalized by fibroblasts number, in percentage of the coculture control condition, Mean (%)","[1]; D3, 3 mg/ml",85%
same,"secretion of HA, normalized by fibroblasts number, in percentage of the coculture control condition, Values (%)","[1]; D3, 3 mg/ml",83% and 75% and 98%
same,"secretion of HA, normalized by fibroblasts number, in percentage of the coculture control condition, Mean (%)","[1]; D6, 1 mg/ml",189%
same,"secretion of HA, normalized by fibroblasts number, in percentage of the coculture control condition, Values (%)","[1]; D6, 1 mg/ml",172% and 157% and 237%
same,"secretion of HA, normalized by fibroblasts number, in percentage of the coculture control condition, Mean (%)","[1]; D6, 2 mg/ml",225%
same,"secretion of HA, normalized by fibroblasts number, in percentage of the coculture control condition, Values (%)","[1]; D6, 2 mg/ml",240% and 233% and 203%
same,"secretion of HA, normalized by fibroblasts number, in percentage of the coculture control condition, Mean (%)","[1]; D6, 3 mg/ml",164%
same,"secretion of HA, normalized by fibroblasts number, in percentage of the coculture control condition, Values (%)","[1]; D6, 3 mg/ml",121% and 213% and 159%
same,"Cells number at the end of the culture, DAPI staining, Mean",[2],13197 AU
same,"Cells number at the end of the culture, DAPI staining, Mean",[2]; listed as compound 6,13 197 AU
same,"Cells number at the end of the culture (DAPI staining), Values",[2]; single replicates,13454 AU and 12839 AU and 13298 AU
same,"MCP1 secretion, Mean (%)",[3]; 1 mg/ml,71 % of AcMC condition
same,"MCP1 secretion, Values (%)",[3]; 1 mg/ml,58.8 % of AcMC condition and 67.5 % of AcMC condition and 85.6 % of AcMC condition
same,"MCP1 secretion, Mean (%)",[3]; 2 mg/ml,65 % of AcMC condition
same,"MCP1 secretion, Values (%)",[3]; 2 mg/ml,62.8 % of AcMC condition and 65.6 % of AcMC condition and 67.5 % of AcMC condition
same,MCP1 secretion compared to the AcMC control condition fixed at 100%,[3]; 1 mg/ml,71%
same,MCP1 secretion compared to the AcMC control condition fixed at 100%,[3]; 2 mg/ml,65%
same,"Cells number at the end of the culture, DAPI staining, Mean",[4]; AcMC + 1 mg/ml,18154 AU
same,"Cells number at the end of the culture (DAPI staining), Values",[4]; AcMC + 1 mg/ml,18502 AU and 17976 AU and 17985 AU
same,"Cells number at the end of the culture, DAPI staining, Mean",[4]; AcMC + 2 mg/ml,20147 AU
same,"Cells number at the end of the culture (DAPI staining), Values",[4]; AcMC + 2 mg/ml,20261 AU and 20369 AU and 19811 AU
same,Cell number (DAPI staining),[4]; 1 mg/ml,18 154 AU
same,Cell number (DAPI staining),[4]; 2 mg/ml,20 147 AU
same,"Cytotoxicity at the end of the culture, normalized by cell number, Mean",[5]; AcMC + 1 mg/ml,81.7 % of AcMC condition
same,"Cytotoxicity at the end of the culture, normalized by cell number, Values",[5]; AcMC + 1 mg/ml,53.1 % of AcMC condition and 81.8 % of AcMC condition and 110.4 % of AcMC condition
same,"Cytotoxicity at the end of the culture, normalized by cell number, Mean",[5]; AcMC + 2 mg/ml,53.3 % of AcMC condition
same,"Cytotoxicity at the end of the culture, normalized by cell number, Values",[5]; AcMC + 2 mg/ml,50.5 % of AcMC condition and 50.6 % of AcMC condition and 58.9 % of AcMC condition
